{"source": "patent US20090042726A1", "about": "“Novel Herbicides” (SYNGENTA LIMITED, priority 2005, published 2009)", "key": {"[1]": {"tested_on": "Monocotyledonous and dicotyledonous test plants", "test": "Herbicidal action, application pre-emergence (Example B1)", "assay_type": "in vivo", "set-up": "key: 10=total damage to plant; 0=no damage to plant", "conditions": "1000 g/ha, evaluated after 9 or 13 days; for AGSTE herbicidal action (damage score 0-10): Agrostis-tenius; for AMARE herbicidal action (damage score 0-10): Amaranthus retroflexus; for DIGSA herbicidal action (damage score 0-10): Digitaria sanguinalis; for POATR herbicidal action (damage score 0-10): Poa trivialis; for SETIT herbicidal action (damage score 0-10): Setaria italica", "method_in_brief": "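Seeds sown in sterilised standard soil were sprayed one day after sowing (pre-emergence) with 1000 mg/l active ingredient in aqueous solution containing 10% DMSO. Plants were kept in a climatic chamber at 24/19° C. day/night after application. Damage was scored 0 (none) to 10 (total) after 9 or 13 days.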"}}}
{"compound": "Cc1nc(C(Cl)S(=O)(=O)C2=NOC(C)(C)C2F)n(C)n1", "note": "(racemic) [8.05, 3-[chloro-(1,3-dimethyl-1H-[1,2,4]triazol-5-yl)-methane-sulfonyl]-4-fluoro-5,5-dimethyl-4,5-dihydro-isoxazole]", "values": [{"measurement": "AGSTE herbicidal action (damage score 0-10)", "setting": "[1]", "result": 10}, {"measurement": "AMARE herbicidal action (damage score 0-10)", "setting": "[1]", "result": 10}, {"measurement": "DIGSA herbicidal action (damage score 0-10)", "setting": "[1]", "result": 9}, {"measurement": "POATR herbicidal action (damage score 0-10)", "setting": "[1]", "result": 8}, {"measurement": "melting point", "result": "140 to 141", "unit": "°C"}]}
{"compound": "CC1(C)ON=C(S(=O)(=O)C(F)(F)c2c(F)cccc2F)C1F", "note": "(stereo not shown) [Compound No. 1.18, 3-[(2,6-difluoro-phenyl)-difluoro-methanesulfonyl]-4-fluoro-5,5-dimethyl-4,5-dihydro-isoxazole]", "values": [{"measurement": "AGSTE herbicidal action (damage score 0-10)", "setting": "[1]", "result": 10}, {"measurement": "AMARE herbicidal action (damage score 0-10)", "setting": "[1]", "result": 10}, {"measurement": "DIGSA herbicidal action (damage score 0-10)", "setting": "[1]", "result": 10}, {"measurement": "POATR herbicidal action (damage score 0-10)", "setting": "[1]", "result": 8}, {"measurement": "SETIT herbicidal action (damage score 0-10)", "setting": "[1]", "result": 9}, {"measurement": "melting point", "result": "115 to 116", "unit": "°C"}]}
{"compound": "Cc1nc(CS(=O)(=O)C2=NOC(C)(C)C2F)n(C)n1", "note": "(stereo not shown) [8.04, 3-[(1,3-dimethyl-1H-[1,2,4]-triazol-5-yl)-methanesulfonyl]-4-fluoro-5,5-dimethyl-4,5-dihydro-isoxazole]", "values": [{"measurement": "melting point", "result": "182 to 184", "unit": "°C"}]}
{"compound": "Cn1nc(C(F)(F)F)c(CS(=O)(=O)C2=NOC(C)(C)C2Cl)c1OCC(F)(F)F", "note": "(stereo not shown) [Compound No. 2.15, 4-chloro-5,5-dimethyl-3-[1-methyl-5-(2,2,2-trifluoro-ethoxy)-3-trifluoromethyl-1H-pyrazol-4-ylmethylsulfonyl]-4,5-dihydro-isoxazole]", "values": [{"measurement": "AGSTE herbicidal action (damage score 0-10)", "setting": "[1]", "result": 10}, {"measurement": "AMARE herbicidal action (damage score 0-10)", "setting": "[1]", "result": 8}, {"measurement": "DIGSA herbicidal action (damage score 0-10)", "setting": "[1]", "result": 8}, {"measurement": "POATR herbicidal action (damage score 0-10)", "setting": "[1]", "result": 10}, {"measurement": "SETIT herbicidal action (damage score 0-10)", "setting": "[1]", "result": 6}, {"measurement": "melting point", "result": "111 to 112", "unit": "°C"}]}
{"compound": "Cn1nc(C(F)(F)F)c(CSC2=NOC(C)(C)C2F)c1OCC(F)(F)F", "note": "(stereo not shown) [Compound No. 2.07, 4-fluoro-5,5-dimethyl-3-[1-methyl-5-(2,2,2-trifluoro-ethoxy)-3-trifluoromethyl-1H-pyrazol-4-ylmethylsulfanyl]-4,5-dihydro-isoxazole]", "values": [{"measurement": "melting point", "result": "50 to 51", "unit": "°C"}]}
{"compound": "CC1(C)ON=C([S+]([O-])Cc2c(F)cccc2F)C1F", "note": "(single isomer, unassigned) [1.16]", "values": [{"measurement": "AGSTE herbicidal action (damage score 0-10)", "setting": "[1]", "result": 10}, {"measurement": "AMARE herbicidal action (damage score 0-10)", "setting": "[1]", "result": 8}, {"measurement": "DIGSA herbicidal action (damage score 0-10)", "setting": "[1]", "result": 10}, {"measurement": "POATR herbicidal action (damage score 0-10)", "setting": "[1]", "result": 10}, {"measurement": "SETIT herbicidal action (damage score 0-10)", "setting": "[1]", "result": 6}]}
{"compound": "C=CCn1nc(C[S+]([O-])C2=NOC(C)(C)C2F)c(C(F)(F)F)n1", "note": "(single isomer, unassigned) [7.09]", "values": [{"measurement": "AGSTE herbicidal action (damage score 0-10)", "setting": "[1]", "result": 10}, {"measurement": "AMARE herbicidal action (damage score 0-10)", "setting": "[1]", "result": 10}, {"measurement": "DIGSA herbicidal action (damage score 0-10)", "setting": "[1]", "result": 10}, {"measurement": "POATR herbicidal action (damage score 0-10)", "setting": "[1]", "result": 10}]}
{"compound": "Cn1ncc(CS(=O)(=O)C2=NOC(C)(C)C2F)n1", "note": "(stereo not shown) [7.23]", "values": [{"measurement": "AGSTE herbicidal action (damage score 0-10)", "setting": "[1]", "result": 10}, {"measurement": "AMARE herbicidal action (damage score 0-10)", "setting": "[1]", "result": 5}, {"measurement": "DIGSA herbicidal action (damage score 0-10)", "setting": "[1]", "result": 9}, {"measurement": "POATR herbicidal action (damage score 0-10)", "setting": "[1]", "result": 9}]}
{"compound": "Cc1nn(C)nc1C[S+]([O-])C1=NOC(C)(C)C1F", "note": "(single isomer, unassigned) [7.03]", "values": [{"measurement": "AGSTE herbicidal action (damage score 0-10)", "setting": "[1]", "result": 8}, {"measurement": "AMARE herbicidal action (damage score 0-10)", "setting": "[1]", "result": 6}, {"measurement": "DIGSA herbicidal action (damage score 0-10)", "setting": "[1]", "result": 10}, {"measurement": "POATR herbicidal action (damage score 0-10)", "setting": "[1]", "result": 10}, {"measurement": "SETIT herbicidal action (damage score 0-10)", "setting": "[1]", "result": 9}]}
{"compound": "CCn1cc(C[S+]([O-])C2=NOC(C)(C)C2F)c(C(F)(F)F)n1", "note": "(mixture of isomers) [2.46]", "values": [{"measurement": "AGSTE herbicidal action (damage score 0-10)", "setting": "[1]", "result": 10}, {"measurement": "AMARE herbicidal action (damage score 0-10)", "setting": "[1]", "result": 10}, {"measurement": "DIGSA herbicidal action (damage score 0-10)", "setting": "[1]", "result": 9}, {"measurement": "POATR herbicidal action (damage score 0-10)", "setting": "[1]", "result": 10}]}
{"compound": "Cn1nc(C(F)(F)F)c(C[S+]([O-])C2=NOC(C)(C)C2F)c1OCC(F)(F)F", "note": "(mixture of isomers) [2.08]", "values": [{"measurement": "AGSTE herbicidal action (damage score 0-10)", "setting": "[1]", "result": 10}, {"measurement": "AMARE herbicidal action (damage score 0-10)", "setting": "[1]", "result": 10}, {"measurement": "DIGSA herbicidal action (damage score 0-10)", "setting": "[1]", "result": 10}, {"measurement": "POATR herbicidal action (damage score 0-10)", "setting": "[1]", "result": 10}, {"measurement": "SETIT herbicidal action (damage score 0-10)", "setting": "[1]", "result": 10}]}
{"compound": "COc1ncc(CS(=O)(=O)C2=NOC(C)(C)C2F)c(C(F)(F)F)n1", "note": "(stereo not shown) [5.03]", "values": [{"measurement": "AGSTE herbicidal action (damage score 0-10)", "setting": "[1]", "result": 10}, {"measurement": "AMARE herbicidal action (damage score 0-10)", "setting": "[1]", "result": 10}, {"measurement": "DIGSA herbicidal action (damage score 0-10)", "setting": "[1]", "result": 8}, {"measurement": "POATR herbicidal action (damage score 0-10)", "setting": "[1]", "result": 10}]}
{"compound": "C=CCn1nc(CS(=O)(=O)C2=NOC(C)(C)C2F)c(C(F)(F)F)n1", "note": "(stereo not shown) [7.10]", "values": [{"measurement": "AGSTE herbicidal action (damage score 0-10)", "setting": "[1]", "result": 10}, {"measurement": "AMARE herbicidal action (damage score 0-10)", "setting": "[1]", "result": 10}, {"measurement": "DIGSA herbicidal action (damage score 0-10)", "setting": "[1]", "result": 10}, {"measurement": "POATR herbicidal action (damage score 0-10)", "setting": "[1]", "result": 10}]}
{"compound": "CC(C)n1nc(C[S+]([O-])C2=NOC(C)(C)C2F)c(C(F)(F)F)n1", "note": "(single isomer, unassigned) [7.25]", "values": [{"measurement": "AGSTE herbicidal action (damage score 0-10)", "setting": "[1]", "result": 10}, {"measurement": "AMARE herbicidal action (damage score 0-10)", "setting": "[1]", "result": 9}, {"measurement": "DIGSA herbicidal action (damage score 0-10)", "setting": "[1]", "result": 9}, {"measurement": "POATR herbicidal action (damage score 0-10)", "setting": "[1]", "result": 10}]}
{"compound": "Cn1nc(C[S+]([O-])C2=NOC(C)(C)C2F)c(C(F)(F)F)c1C#N", "note": "(single isomer, unassigned) [4.08]", "values": [{"measurement": "AGSTE herbicidal action (damage score 0-10)", "setting": "[1]", "result": 10}, {"measurement": "AMARE herbicidal action (damage score 0-10)", "setting": "[1]", "result": 5}, {"measurement": "DIGSA herbicidal action (damage score 0-10)", "setting": "[1]", "result": 9}, {"measurement": "POATR herbicidal action (damage score 0-10)", "setting": "[1]", "result": 8}]}
{"compound": "Cn1cc(C(F)(F)F)c(C[S+]([O-])C2=NOC(C)(C)C2F)n1", "note": "(mixture of isomers) [4.02]", "values": [{"measurement": "AGSTE herbicidal action (damage score 0-10)", "setting": "[1]", "result": 10}, {"measurement": "AMARE herbicidal action (damage score 0-10)", "setting": "[1]", "result": 9}, {"measurement": "DIGSA herbicidal action (damage score 0-10)", "setting": "[1]", "result": 9}, {"measurement": "POATR herbicidal action (damage score 0-10)", "setting": "[1]", "result": 10}, {"measurement": "SETIT herbicidal action (damage score 0-10)", "setting": "[1]", "result": 9}]}
{"compound": "Cc1nc(C(F)(F)F)ccc1C[S+]([O-])C1=NOC(C)(C)C1F", "note": "(mixture of isomers) [3.02]", "values": [{"measurement": "AGSTE herbicidal action (damage score 0-10)", "setting": "[1]", "result": 10}, {"measurement": "AMARE herbicidal action (damage score 0-10)", "setting": "[1]", "result": 7}, {"measurement": "DIGSA herbicidal action (damage score 0-10)", "setting": "[1]", "result": 9}, {"measurement": "POATR herbicidal action (damage score 0-10)", "setting": "[1]", "result": 10}, {"measurement": "SETIT herbicidal action (damage score 0-10)", "setting": "[1]", "result": 8}]}
{"compound": "CC1(C)ON=C([S+]([O-])Cc2nn(C3CCCC3)nc2C(F)(F)F)C1F", "note": "(mixture of isomers) [7.13]", "values": [{"measurement": "AGSTE herbicidal action (damage score 0-10)", "setting": "[1]", "result": 10}, {"measurement": "AMARE herbicidal action (damage score 0-10)", "setting": "[1]", "result": 4}, {"measurement": "DIGSA herbicidal action (damage score 0-10)", "setting": "[1]", "result": 9}, {"measurement": "POATR herbicidal action (damage score 0-10)", "setting": "[1]", "result": 8}]}
